Results published in US7585833B2, “Malodor covering perfumery” (Givaudan Fragrances Corporation, priority 2005, dated 2009).

Tests used:
[1] = cited from earlier work; for ODT (ppb): odor detection threshold, Table 3
[2] = Stability and malodor coverage evaluation of odorants in permanent hair color crème (10% ammonia); set-up: key to malodor coverage rating 1 Week RT / malodor coverage rating 1 Week Oven / malodor coverage rating 6 Weeks RT / malodor coverage rating 6 Weeks Oven / malodor coverage rating 2 Weeks RT / malodor coverage rating 2 Weeks Oven / malodor coverage rating 3 Weeks RT / malodor coverage rating 3 Weeks Oven / malodor coverage rating 4 Weeks RT / malodor coverage rating 4 Weeks Oven / malodor coverage rating 5 Weeks RT / malodor coverage rating 5 Weeks Oven: E: excellent; VG: very good; G: good coverage; key to odorant performance 1 Week RT / odorant performance 1 Week Oven / odorant performance 2 Weeks RT / odorant performance 2 Weeks Oven / odorant performance 3 Weeks RT / odorant performance 3 Weeks Oven / odorant performance 4 Weeks RT / odorant performance 4 Weeks Oven: E=excellent; VG=very good; G=good; F=fair; P=poor; conditions: for odorant performance 1 Week Oven / odorant performance 1 Week RT / odorant performance 2 Weeks Oven / odorant performance 2 Weeks RT / odorant performance 3 Weeks Oven / odorant performance 3 Weeks RT / odorant performance 4 Weeks Oven / odorant performance 4 Weeks RT: odorant at 0.2% in dye less permanent hair color crème (10% ammonia hydroxide); for odorant performance 1 Week Oven / odorant performance 2 Weeks Oven / odorant performance 3 Weeks Oven / odorant performance 4 Weeks Oven: oven temperature; for odorant performance 1 Week RT / odorant performance 2 Weeks RT / odorant performance 3 Weeks RT / odorant performance 4 Weeks RT / malodor coverage rating 1 Week RT / malodor coverage rating 2 Weeks RT / malodor coverage rating 3 Weeks RT / malodor coverage rating 4 Weeks RT / malodor coverage rating 5 Weeks RT / malodor coverage rating 6 Weeks RT: room temperature; for stability observation in the formulation: odorant at 0.2% in permanent hair color crème (10% ammonia hydroxide), remark beside the raw material; for malodor coverage rating 1 Week Oven / malodor coverage rating 1 Week RT / malodor coverage rating 2 Weeks Oven / malodor coverage rating 2 Weeks RT / malodor coverage rating 3 Weeks Oven / malodor coverage rating 3 Weeks RT / malodor coverage rating 4 Weeks Oven / malodor coverage rating 4 Weeks RT / malodor coverage rating 5 Weeks Oven / malodor coverage rating 5 Weeks RT / malodor coverage rating 6 Weeks Oven / malodor coverage rating 6 Weeks RT: 10% ammonia formulation; for malodor coverage rating 1 Week Oven / malodor coverage rating 2 Weeks Oven / malodor coverage rating 3 Weeks Oven / malodor coverage rating 4 Weeks Oven / malodor coverage rating 5 Weeks Oven / malodor coverage rating 6 Weeks Oven: oven at 37° C.
Excerpt: The marks E, VG, G stand for excellent, very good and good coverage and are part of a 5 scale rating system. […] Odorants were put up at 0.2% in the formulation, and odorants were subjected to 6 week stability testing at room temperature (R.T.) and […] oven temperature. […] G=good, F=fair; P=poor).

Row | Compound | ODT (ppb) [1] | odorant performance 1 Week Oven [2] | odorant performance 1 Week RT [2] | odorant performance 2 Weeks Oven [2] | odorant performance 2 Weeks RT [2] | odorant performance 3 Weeks Oven [2] | odorant performance 3 Weeks RT [2] | odorant performance 4 Weeks Oven [2] | odorant performance 4 Weeks RT [2] | also measured
1 | CC12CCC(CC1)C(C)(C)O2 [1,3,3-trimethyl-2-oxabicyclo[2.2.2]octane] | less than 50 ppb |  |  |  |  |  |  |  |  | 
2 | CC(C)=CCCC(C)C=O (stereo not shown) [2,6-dimethyl-5-heptenal] | less than 50 ppb |  |  |  |  |  |  |  |  | 
3 | CCCCCC(=O)CC [3-octanone] | less than 50 ppb |  |  |  |  |  |  |  |  | 
4 | C=CCOC(=O)COCCC(C)C [ALLYL AMYL GLYCOLATE] |  | G | G | F | G | F | G | F | G | 
5 | O=C(OCc1ccccc1)c1ccccc1O [BENZYL SALICYLATE] |  | G | G | G | G | F | F | F | F | 
6 | CCOC(=O)CC(C)=O [ETHYL ACETOACETATE] |  | F | F | F | F | F | F | F | F | stability observation in the formulation [2]: ETHYL ACETOACETATE (discolors in oven)
7 | CCc1ccc(CC(C)(C)C=O)cc1 [FLORALOZONE] |  | G | G | G | G | G | G | G | G | 
8 | CC(C)CC1CC(C)(O)CCO1 (stereo not shown) [FLOROL] |  | F | F | P | P | P | P | P | P | 
9 | CC1COCc2cc3c(cc21)C(C)(C)C(C)C3(C)C (stereo not shown) [Galaxolide, 1,3,4,6,7,8-Hexahydro-4,6,6,7,8,8-hexamethylcyclopenta-γ-2-benzopyran] |  |  |  |  |  |  |  |  |  | malodor coverage rating 1 Week Oven [2]: E; malodor coverage rating 1 Week RT [2]: E; malodor coverage rating 2 Weeks Oven [2]: VG; malodor coverage rating 2 Weeks RT [2]: VG; malodor coverage rating 3 Weeks Oven [2]: G; malodor coverage rating 3 Weeks RT [2]: G; malodor coverage rating 4 Weeks Oven [2]: G; malodor coverage rating 4 Weeks RT [2]: G; malodor coverage rating 5 Weeks Oven [2]: G; malodor coverage rating 5 Weeks RT [2]: G; malodor coverage rating 6 Weeks Oven [2]: G; malodor coverage rating 6 Weeks RT [2]: G
10 | CCCCCCC(C=O)=Cc1ccccc1 [Hexyl cinnamic aldehyde] |  | G | G | G | G | G | G | G | G | stability observation in the formulation [2]: HEXYL CINNAMIC ALDEHYDE (cloudy)
11 | C=CC(C)(O)CCC=C(C)C (stereo not shown) [LINALOOL SYNTHETIC, LINALOOL] |  | G | G | G | G | G | G | G | G | 
12 | CC(C=O)Cc1ccc(C(C)(C)C)cc1 (stereo not drawn) [Lilial, p-t-Butyl-α-methylhydrocinnamic aldehyde] |  | G | G | G | G | G | G | G | G | 
13 | CC1CC=CCCCCCCCCCC(=O)C1 (stereo not shown) [MUSCENONE @ 10% DPG] |  | F | F | F | F | F | F | F | F | 
14 | CCC/C=C/C=O [TRANS-2-HEXENAL @ 10% DPG, TRANS-2-HEXENAL] |  | F | G | F | G | F | G | F | F | 
15 | CC/C=C\CCOC(C)=O [cis-3-hexenyl acetate] |  | G | G | G | G | F | F | F | F | 
16 | CC/C=C\CCOC(=O)OC [cis-3-hexenyl methyl carbonate] | less than 50 ppb |  |  |  |  |  |  |  |  | 

Row | Compound | ODT (ppb) [1] | odorant performance 1 Week Oven [2] | odorant performance 1 Week RT [2] | odorant performance 2 Weeks Oven [2] | odorant performance 2 Weeks RT [2] | odorant performance 3 Weeks Oven [2] | odorant performance 3 Weeks RT [2] | odorant performance 4 Weeks Oven [2] | odorant performance 4 Weeks RT [2] | also measured
17 | CC/C=C\CCC=O [cis-4-heptenal] | less than 50 ppb |  |  |  |  |  |  |  |  | 
18 | CCOC(=O)CC1(C)OCCO1 [ethyl 2-methyl-1,3-dioxolane-2-acetate] | less than 50 ppb |  |  |  |  |  |  |  |  | 
19 | CCCC(C)C(=O)OCC (stereo not shown) [ethyl 2-methylpentanoate] | less than 50 ppb |  |  |  |  |  |  |  |  | 
20 | CCOC(=O)CC(C)C [ethyl 3-methylbutanoate] | less than 50 ppb |  |  |  |  |  |  |  |  | 
21 | CCCC(=O)OCC [ethyl butyrate] | less than 50 ppb |  |  |  |  |  |  |  |  | 
22 | CCCCCC(=O)OCC [ethyl hexanoate] | less than 50 ppb |  |  |  |  |  |  |  |  | 
23 | CCOC(=O)CC [ethyl propionate] | less than 50 ppb |  |  |  |  |  |  |  |  | 
24 | CCOC(=O)C(C)CC (stereo not shown) [ethyl-2-methylbutyrate] | less than 50 ppb |  |  |  |  |  |  |  |  | 
25 | CCCCCC=O [hexanal] | less than 50 ppb |  |  |  |  |  |  |  |  | 
26 | CCCCCCOC(C)=O [hexyl acetate] | less than 50 ppb |  |  |  |  |  |  |  |  | 
27 | COC(=O)C=C1CCCC1 [methyl cyclopentylidene acetate] | less than 50 ppb |  |  |  |  |  |  |  |  | 
28 | CCCCCCOC [methyl hexyl ether] | less than 50 ppb |  |  |  |  |  |  |  |  | 
29 | CCCCCOC(C)=O [pentyl acetate] | less than 50 ppb |  |  |  |  |  |  |  |  | 
30 | CCCOC(=O)CCC [propyl butyrate] | less than 50 ppb |  |  |  |  |  |  |  |  | 
31 | CC=CC(=O)C1=C(C)CCCC1(C)C [β-damascone, β-1-(2,6,6-trimethyl-1-cyclohexen-1-yl)-2-buten-1-one] |  | VG | E | VG | E | G | VG | G | VG | odor detection threshold value in water ([1]; in water): 0.09 parts per billion; malodor coverage rating 1 Week Oven [2]: VG; malodor coverage rating 1 Week RT [2]: E; malodor coverage rating 2 Weeks Oven [2]: VG; malodor coverage rating 2 Weeks RT [2]: E; malodor coverage rating 3 Weeks Oven [2]: G; malodor coverage rating 3 Weeks RT [2]: VG; malodor coverage rating 4 Weeks Oven [2]: G; malodor coverage rating 4 Weeks RT [2]: VG; malodor coverage rating 5 Weeks Oven [2]: G; malodor coverage rating 5 Weeks RT [2]: VG; malodor coverage rating 6 Weeks Oven [2]: G; malodor coverage rating 6 Weeks RT [2]: G
32 | CCC(C)COC(C)=O (stereo not drawn) [β-methyl butyl acetate] | less than 50 ppb |  |  |  |  |  |  |  |  | 
